{"source": "paper PMC6474793", "about": "(Biochemistry, 2018)", "key": {"BauB": {"biological_target": "BauB (Acinetobacter baumannii, UniProt Q76HK0)", "assay": "BauB binding by intrinsic Trp fluorescence quenching"}, "[1]": {"conditions": "Fe binding in CAS assay; reported previously; cited from earlier work"}}, "data": [{"smiles": "C[C@@H]1ON(CCc2c[nH]cn2)C(=O)[C@H]1NC(=O)c1cccc(O)c1O", "note": "[compound 1, acinetobactin]", "values": [{"measurement": "Kd", "setting": "BauB", "value": "300 ± 100", "unit": "nM"}, {"measurement": "CAS (+/-)", "setting": "[1]", "value": "+"}]}]}
